Each structure is given as a SMILES string. pKi: −log10 of the molar value. Where a name gives a salt, the structure may show the parent alone.

Assay [1] has as its target 5-hydroxytryptamine receptor 7 (Homo sapiens, UniProt P34969). In words: PDSP Secondary Binding target: HTR7 - Compounds are tested at 10 uM concentration, plate are incubated at room temperature in the dark for 90 minutes. Reaction are stopped by vacuum filtration onto 0.3% polyethyleneimine soaked filter mats using Filtermate harvester. Scintillation cocktail is then melted onto microwave-dried filters on a hot plate and the radio activity is counted in Microbia counter.

Assay [2] addresses T1, Alpha-2A adrenergic receptor (Homo sapiens, UniProt P08913).
T1 sequence (P08913 whole entry): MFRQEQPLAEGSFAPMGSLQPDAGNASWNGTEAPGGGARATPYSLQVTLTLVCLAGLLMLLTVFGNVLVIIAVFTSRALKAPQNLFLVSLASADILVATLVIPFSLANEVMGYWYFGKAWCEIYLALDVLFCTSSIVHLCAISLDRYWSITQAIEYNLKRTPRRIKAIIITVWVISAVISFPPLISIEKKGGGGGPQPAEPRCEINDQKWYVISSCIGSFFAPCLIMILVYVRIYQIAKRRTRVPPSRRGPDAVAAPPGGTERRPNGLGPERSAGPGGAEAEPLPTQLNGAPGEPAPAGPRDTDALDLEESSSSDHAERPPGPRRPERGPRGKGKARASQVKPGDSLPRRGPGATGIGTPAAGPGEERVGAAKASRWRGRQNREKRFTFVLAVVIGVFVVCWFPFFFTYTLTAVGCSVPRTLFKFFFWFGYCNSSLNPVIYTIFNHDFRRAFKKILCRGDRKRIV
Description: PDSP Secondary Binding target: ADRA2A - Compounds are tested at 10 uM concentration, plate are incubated at room temperature in the dark for 90 minutes. Reaction are stopped by vacuum filtration onto 0.3% polyethyleneimine soaked filter mats using Filtermate harvester. Scintillation cocktail is then melted onto microwave-dried filters on a hot plate and the radio activity is counted in Microbia counter.

The target of assay [3] is 5-hydroxytryptamine receptor 5A (Homo sapiens, UniProt P47898). Description: PDSP Secondary Binding target: HTR5A - Compounds are tested at 10 uM concentration, plate are incubated at room temperature in the dark for 90 minutes. Reaction are stopped by vacuum filtration onto 0.3% polyethyleneimine soaked filter mats using Filtermate harvester. Scintillation cocktail is then melted onto microwave-dried filters on a hot plate and the radio activity is counted in Microbia counter.

Assay [4] deals with Sodium-dependent noradrenaline transporter (Homo sapiens, UniProt P23975). Description: PDSP Secondary Binding target: SLC6A2 - Compounds are tested at 10 uM concentration, plate are incubated at room temperature in the dark for 90 minutes. Reaction are stopped by vacuum filtration onto 0.3% polyethyleneimine soaked filter mats using Filtermate harvester. Scintillation cocktail is then melted onto microwave-dried filters on a hot plate and the radio activity is counted in Microbia counter.

Assay [5] has as its target Sodium-dependent dopamine transporter (Homo sapiens, UniProt Q01959). Description: PDSP Secondary Binding target: SLC6A3 - Compounds are tested at 10 uM concentration, plate are incubated at room temperature in the dark for 90 minutes. Reaction are stopped by vacuum filtration onto 0.3% polyethyleneimine soaked filter mats using Filtermate harvester. Scintillation cocktail is then melted onto microwave-dried filters on a hot plate and the radio activity is counted in Microbia counter.

Assay [6] deals with T2, 5-hydroxytryptamine receptor 2C (Homo sapiens, UniProt P28335).
T2 sequence (P28335 whole entry): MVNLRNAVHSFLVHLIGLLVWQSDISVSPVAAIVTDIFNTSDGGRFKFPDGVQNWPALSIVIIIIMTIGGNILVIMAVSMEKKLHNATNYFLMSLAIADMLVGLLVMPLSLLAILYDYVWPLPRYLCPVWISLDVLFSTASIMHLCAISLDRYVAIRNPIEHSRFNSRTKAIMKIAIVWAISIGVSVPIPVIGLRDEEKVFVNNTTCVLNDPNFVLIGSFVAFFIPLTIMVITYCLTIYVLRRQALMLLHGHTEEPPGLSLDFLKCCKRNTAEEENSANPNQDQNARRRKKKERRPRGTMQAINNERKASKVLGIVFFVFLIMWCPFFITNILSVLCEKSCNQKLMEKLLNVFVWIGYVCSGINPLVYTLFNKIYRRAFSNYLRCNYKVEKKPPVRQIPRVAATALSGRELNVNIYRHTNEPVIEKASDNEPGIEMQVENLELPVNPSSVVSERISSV
In words: PDSP Secondary Binding target: HTR2C - Compounds are tested at 10 uM concentration, plate are incubated at room temperature in the dark for 90 minutes. Reaction are stopped by vacuum filtration onto 0.3% polyethyleneimine soaked filter mats using Filtermate harvester. Scintillation cocktail is then melted onto microwave-dried filters on a hot plate and the radio activity is counted in Microbia counter.

Assay [7] concerns the target 5-hydroxytryptamine receptor 1D (Homo sapiens, UniProt P28221). Description: PDSP Secondary Binding target: HTR1D - Compounds are tested at 10 uM concentration, plate are incubated at room temperature in the dark for 90 minutes. Reaction are stopped by vacuum filtration onto 0.3% polyethyleneimine soaked filter mats using Filtermate harvester. Scintillation cocktail is then melted onto microwave-dried filters on a hot plate and the radio activity is counted in Microbia counter.

The target of assay [8] is 5-hydroxytryptamine receptor 2A (Homo sapiens, UniProt P28223). Description: PDSP Secondary Binding target: HTR2A - Compounds are tested at 10 uM concentration, plate are incubated at room temperature in the dark for 90 minutes. Reaction are stopped by vacuum filtration onto 0.3% polyethyleneimine soaked filter mats using Filtermate harvester. Scintillation cocktail is then melted onto microwave-dried filters on a hot plate and the radio activity is counted in Microbia counter.

The target in assay [9] is T3, Alpha-1B adrenergic receptor (Homo sapiens, UniProt P35368).
T3 sequence (P35368 whole entry): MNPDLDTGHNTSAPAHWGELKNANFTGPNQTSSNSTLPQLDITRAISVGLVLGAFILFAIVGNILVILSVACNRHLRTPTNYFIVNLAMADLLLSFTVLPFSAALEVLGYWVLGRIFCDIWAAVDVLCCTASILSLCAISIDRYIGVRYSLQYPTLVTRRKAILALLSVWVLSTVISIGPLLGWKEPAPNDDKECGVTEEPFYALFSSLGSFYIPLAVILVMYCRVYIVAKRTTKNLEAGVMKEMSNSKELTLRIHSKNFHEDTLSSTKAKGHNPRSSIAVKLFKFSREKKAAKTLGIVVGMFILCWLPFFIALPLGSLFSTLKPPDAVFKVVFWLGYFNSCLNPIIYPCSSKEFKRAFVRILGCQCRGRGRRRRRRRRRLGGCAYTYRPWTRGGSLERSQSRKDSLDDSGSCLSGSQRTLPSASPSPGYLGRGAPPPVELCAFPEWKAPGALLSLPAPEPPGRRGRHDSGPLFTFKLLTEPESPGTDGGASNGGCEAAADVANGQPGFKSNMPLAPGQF
In words: PDSP Secondary Binding target: ADRA1B - Compounds are tested at 10 uM concentration, plate are incubated at room temperature in the dark for 90 minutes. Reaction are stopped by vacuum filtration onto 0.3% polyethyleneimine soaked filter mats using Filtermate harvester. Scintillation cocktail is then melted onto microwave-dried filters on a hot plate and the radio activity is counted in Microbia counter.

5-hydroxytryptamine receptor 1D, sequence (P28221 whole entry): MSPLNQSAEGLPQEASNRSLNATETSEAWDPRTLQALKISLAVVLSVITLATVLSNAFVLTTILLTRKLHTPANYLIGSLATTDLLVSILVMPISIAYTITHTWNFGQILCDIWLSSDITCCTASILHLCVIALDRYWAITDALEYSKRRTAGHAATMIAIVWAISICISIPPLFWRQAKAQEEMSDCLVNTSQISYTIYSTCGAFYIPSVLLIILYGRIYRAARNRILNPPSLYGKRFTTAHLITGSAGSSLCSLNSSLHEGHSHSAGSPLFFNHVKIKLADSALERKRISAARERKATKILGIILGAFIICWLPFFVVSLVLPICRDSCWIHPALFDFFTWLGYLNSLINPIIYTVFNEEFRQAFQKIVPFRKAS
5-hydroxytryptamine receptor 7, sequence (P34969 whole entry): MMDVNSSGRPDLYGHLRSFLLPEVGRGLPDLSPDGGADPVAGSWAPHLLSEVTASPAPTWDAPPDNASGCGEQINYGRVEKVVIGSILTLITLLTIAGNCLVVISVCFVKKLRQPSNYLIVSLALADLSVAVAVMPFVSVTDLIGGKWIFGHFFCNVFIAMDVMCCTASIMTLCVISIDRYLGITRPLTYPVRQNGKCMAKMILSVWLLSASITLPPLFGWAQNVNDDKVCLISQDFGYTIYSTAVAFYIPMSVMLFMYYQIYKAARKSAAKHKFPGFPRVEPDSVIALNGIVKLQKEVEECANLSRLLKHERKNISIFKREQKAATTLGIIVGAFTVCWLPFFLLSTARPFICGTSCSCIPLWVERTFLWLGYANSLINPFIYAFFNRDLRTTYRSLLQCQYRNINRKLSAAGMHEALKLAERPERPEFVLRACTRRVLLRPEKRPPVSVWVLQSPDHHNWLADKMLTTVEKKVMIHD
Sodium-dependent dopamine transporter, sequence (Q01959 whole entry): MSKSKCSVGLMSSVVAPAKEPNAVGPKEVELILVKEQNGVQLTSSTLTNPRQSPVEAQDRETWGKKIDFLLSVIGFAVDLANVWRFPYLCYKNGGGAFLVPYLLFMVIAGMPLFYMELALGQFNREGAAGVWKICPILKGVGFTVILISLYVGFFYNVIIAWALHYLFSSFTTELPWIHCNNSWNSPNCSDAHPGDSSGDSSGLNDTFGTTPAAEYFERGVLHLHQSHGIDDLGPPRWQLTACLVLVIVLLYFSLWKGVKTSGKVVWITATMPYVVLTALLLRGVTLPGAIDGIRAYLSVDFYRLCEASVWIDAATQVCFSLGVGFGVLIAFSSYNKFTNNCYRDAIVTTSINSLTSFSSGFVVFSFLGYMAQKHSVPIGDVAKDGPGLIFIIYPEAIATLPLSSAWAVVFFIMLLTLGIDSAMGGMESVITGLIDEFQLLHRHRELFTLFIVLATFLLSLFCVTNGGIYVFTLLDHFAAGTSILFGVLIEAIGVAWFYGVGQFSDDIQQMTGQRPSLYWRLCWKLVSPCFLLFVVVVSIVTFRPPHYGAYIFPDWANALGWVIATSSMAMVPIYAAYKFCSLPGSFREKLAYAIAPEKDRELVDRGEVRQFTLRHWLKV
5-hydroxytryptamine receptor 2A, sequence (P28223 whole entry): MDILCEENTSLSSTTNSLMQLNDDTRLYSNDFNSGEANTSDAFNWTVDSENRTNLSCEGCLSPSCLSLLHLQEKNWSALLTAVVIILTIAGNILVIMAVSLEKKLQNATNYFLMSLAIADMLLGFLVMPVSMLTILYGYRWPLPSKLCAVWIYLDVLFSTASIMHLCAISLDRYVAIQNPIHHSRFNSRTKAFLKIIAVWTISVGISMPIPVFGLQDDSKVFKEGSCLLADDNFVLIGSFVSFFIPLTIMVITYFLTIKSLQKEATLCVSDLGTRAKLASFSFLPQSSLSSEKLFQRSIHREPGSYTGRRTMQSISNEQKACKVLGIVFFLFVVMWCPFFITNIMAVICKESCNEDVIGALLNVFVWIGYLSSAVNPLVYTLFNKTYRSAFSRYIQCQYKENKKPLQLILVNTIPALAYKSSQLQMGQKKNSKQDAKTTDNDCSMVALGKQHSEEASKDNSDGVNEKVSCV
Sodium-dependent noradrenaline transporter, sequence (P23975 whole entry): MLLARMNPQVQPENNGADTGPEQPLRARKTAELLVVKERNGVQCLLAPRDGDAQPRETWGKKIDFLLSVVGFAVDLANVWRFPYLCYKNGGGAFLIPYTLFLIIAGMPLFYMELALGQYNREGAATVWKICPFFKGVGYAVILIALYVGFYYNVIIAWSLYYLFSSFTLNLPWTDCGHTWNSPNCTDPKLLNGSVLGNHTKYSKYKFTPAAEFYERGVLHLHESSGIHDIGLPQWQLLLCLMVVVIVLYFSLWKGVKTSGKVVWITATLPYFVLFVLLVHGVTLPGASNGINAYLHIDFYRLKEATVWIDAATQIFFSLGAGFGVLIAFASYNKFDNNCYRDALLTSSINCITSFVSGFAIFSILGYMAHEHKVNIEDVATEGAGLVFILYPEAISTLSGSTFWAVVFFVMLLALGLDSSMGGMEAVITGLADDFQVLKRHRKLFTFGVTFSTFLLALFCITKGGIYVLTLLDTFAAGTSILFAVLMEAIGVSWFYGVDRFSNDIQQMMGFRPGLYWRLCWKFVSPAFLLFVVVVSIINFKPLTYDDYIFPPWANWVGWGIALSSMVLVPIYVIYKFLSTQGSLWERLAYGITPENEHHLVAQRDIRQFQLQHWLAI
5-hydroxytryptamine receptor 5A, sequence (P47898 whole entry): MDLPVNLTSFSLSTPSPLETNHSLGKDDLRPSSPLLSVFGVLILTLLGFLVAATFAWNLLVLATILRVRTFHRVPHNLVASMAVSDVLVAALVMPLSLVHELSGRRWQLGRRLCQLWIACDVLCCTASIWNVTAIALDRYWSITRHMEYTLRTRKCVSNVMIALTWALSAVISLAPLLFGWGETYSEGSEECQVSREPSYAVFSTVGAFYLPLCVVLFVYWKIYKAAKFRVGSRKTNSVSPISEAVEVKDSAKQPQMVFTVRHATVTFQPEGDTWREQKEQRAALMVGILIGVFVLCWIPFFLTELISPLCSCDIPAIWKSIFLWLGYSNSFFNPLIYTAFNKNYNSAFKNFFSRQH

For `CN1CCC(=C2c3ccccc3CC(=O)c3sccc32)CC1` [KETOTIFEN FUMARATE], the pKi (in general, the negative decadic logarithm of the Ki, by convention in mol/L) is 6.39 in assay [1] and 5.96 in assay [2].

As for `COC(=O)C1=C(C)NC(C)=C(C(=O)OCCCN2CCC(c3ccccc3)(c3ccccc3)CC2)[C@H]1c1cccc([N+](=O)[O-])c1` [NIGULDIPINE], the pKi in assay [3] was 6.37; in [1], 6.50; in assay [4], 6.07; in assay [5] it was 6.23; in assay [6], 5.73.

Consider `Clc1cccc(COc2cncc(N3CCNCC3)n2)c1`, for which the pKi in [7] is 7.16; in [1], 6.25; in assay [6], 8.02; in [8] it was 6.98.

Take `Cc1ccc2c(c1)c1c(n2CCc2ccc(C)nc2)CCN(C)C1` [LATREPIRDINE]: the pKi is 6.38 in [7]; 6.97 in assay [3]; 7.83 in assay [1]; 5.88 in assay [9]; 6.14 in assay [2]; 6.14 in assay [8].

Take `O=S1(=O)c2cccc3cccc(c23)N1CCCN1CCN(c2ccc(F)cc2)CC1` [FANANSERIN]: the pKi in assay [3] is 5.17; in assay [1], 6.13; in assay [4], less than 5.00; in assay [5], 5.57; in [9], 6.07; in assay [2] it was 5.69.

With `N#Cc1ccc2[nH]cc(CCCCN3CCN(c4ccc5oc(C(N)=O)cc5c4)CC3)c2c1` [VILAZODONE HYDROCHLORIDE], the pKi was 6.43 in assay [7]; 6.10 in assay [1]; 7.81 in assay [4]; 7.66 in assay [5]; 5.54 in [9]; 5.60 in assay [2].

On to `OCc1cc(C(O)CNCCCCCCOCCCCc2ccccc2)ccc1O` (stereo not drawn) [SALMETEROL], for which the pKi in [7] was 5.98; in [1], 6.59; in [4], 6.42; in assay [5] it was 6.83; in [2], less than 5.00; in assay [6], 5.39.

On to `C[C@H](Cc1cc2c(c(C(N)=O)c1)N(CCCO)CC2)NCCOc1ccccc1OCC(F)(F)F` [SILODOSIN], for which the pKi was 7.04 in assay [7], 6.32 in assay [1], 6.71 in assay [9] and 6.17 in [2].

On to `CCOC(=O)c1c(C)[nH]c2ccc3c(c12)CN1CCc2cc(OC)ccc2C1O3` (stereo not drawn), for which the pKi in assay [4] was 5.55; in [5] it was 6.17; in assay [2], 6.12.

For `CCc1cc2c(cc1CC)CC(NC[C@H](O)c1ccc(O)c3[nH]c(=O)ccc13)C2` [INDACATEROL], the pKi in assay [4] is 6.25; in [5] it was 7.12; in [9] it was 5.36; in assay [6] it was 5.74; in assay [8], 5.69.

Turning to `CN1CCN(c2ccc(Nc3c4ccccc4nc4ccccc34)cc2)CC1`, the pKi in assay [7] was 5.79; in [1], 6.38; in assay [4], 6.92; in assay [5] it was 6.35; in assay [9] it was 5.57.

Take `CN1C2CCC1CC(OC(c1ccc(F)cc1)c1ccc(F)cc1)C2` (stereo not drawn): the pKi is 5.95 in assay [7]; 6.90 in assay [1]; 6.11 in [4]; 6.58 in assay [9]; 7.76 in [8].

As to `CN1CCCC(n2nc(Cc3ccc(Cl)cc3)c3ccccc3c2=O)CC1` (stereo not drawn) [AZELASTINE HYDROCHLORIDE], the pKi is 6.05 in assay [7]; 6.41 in assay [1]; 5.44 in assay [9]; 5.84 in [2]; 6.64 in assay [8].

For the compound `NCCc1cn(S(=O)(=O)c2c(Cl)nc3sccn23)c2ccccc12`, the negative logarithm of the Ki (pKi) is 6.66 in assay [7]; 5.84 in [1]; 5.90 in assay [4]; 5.76 in [5]; 5.31 in [9]; 6.81 in [2]. The same compound gave a negative-log Ki (pKi) in assay [8] of 6.95.

With `Cc1c(P(=S)(c2ccccc2)c2ccccc2)n2ccccc2[n+]1C/C=C/c1ccccc1`, the pKi was 6.02 in assay [4], 6.25 in [2] and 5.55 in assay [8].

With `CCCCN1CCC(COC(=O)c2cc(Cl)c(N)c3c2OCCO3)CC1`, the pKi in assay [7] was 5.42; in assay [2], 5.82; in assay [6] it was 6.20; in assay [8], 6.02.

As to `Cc1nc(-c2ccc(-c3ccc(C(=O)N4CCc5cc6c(cc54)C4(CCN(C)CC4)CO6)cc3)c(C)c2)no1` [SB-224289], the pKi in [4] was 5.76; in assay [5], 5.93; in [2], 5.61; in [6], 6.07; in [8], 5.75.

Regarding `COc1cccc([C@@H](C)NCCCc2ccccc2Cl)c1` [TECALCET HYDROCHLORIDE], the pKi was 5.96 in assay [3], 5.72 in [4], 6.79 in assay [6] and 6.74 in [8].

Regarding `Cc1cc(C)cc(-c2cnc3cc(Cl)c(-c4cccc(O)c4)cc3c2OCCCN)c1`, the pKi in [7] was 6.53; in assay [3] it was 6.07; in assay [1], 5.66; in assay [4], 5.24; in assay [2], 6.07; in assay [8] it was 5.46.

In the case of `Cc1nn(C)c(C)c1-c1cccc2c1CC[C@H](N(C)C)C2`, the pKi was 8.26 in assay [7], 7.12 in [3], 8.64 in [1] and 6.19 in assay [2].

In the case of `NC[C@@H]1O[C@H](C23CC4CC(CC(C4)C2)C3)Cc2c1ccc(O)c2O`, the pKi in [4] was 6.02; in [5] it was 6.32; in assay [9] it was 5.38; in assay [2], 6.05.

With `CCc1nn(CCCN2CCN(c3cccc(Cl)c3)CC2)c(=O)n1CCOc1ccccc1` [NEFAZODONE HYDROCHLORIDE], the pKi in assay [7] is 6.91; in [3], 5.96; in assay [1] it was 7.15; in assay [9] it was 6.24.

For the origin of these results see ChEMBL document CHEMBL5442175, “EUbOPEN Chemogenomics Library - PDSP Secondary Binding” (2024).
